In this test the target is p38α MAP kinase (Homo sapiens, UniProt Q16539). In words: p38α MAP kinase inhibition assay (non radioactive immunosorbent enzyme assay, ATF-2 phosphorylation; Ultra Glo Promega kit). To be noted: mean of four separated experiments; compounds assayed at 10^−4 to 10^−8 M. Type of test: biochemical.

Eight molecules from article PMC8003627, “Synthesis and Biological Evaluation of 2,3,4-Triaryl-1,2,4-oxadiazol-5-ones as p38 MAPK Inhibitors” (Molecules, 2021) can be followed below.

Molecules are shown by their SMILES.

p38α MAP kinase, sequence (Q16539 whole entry): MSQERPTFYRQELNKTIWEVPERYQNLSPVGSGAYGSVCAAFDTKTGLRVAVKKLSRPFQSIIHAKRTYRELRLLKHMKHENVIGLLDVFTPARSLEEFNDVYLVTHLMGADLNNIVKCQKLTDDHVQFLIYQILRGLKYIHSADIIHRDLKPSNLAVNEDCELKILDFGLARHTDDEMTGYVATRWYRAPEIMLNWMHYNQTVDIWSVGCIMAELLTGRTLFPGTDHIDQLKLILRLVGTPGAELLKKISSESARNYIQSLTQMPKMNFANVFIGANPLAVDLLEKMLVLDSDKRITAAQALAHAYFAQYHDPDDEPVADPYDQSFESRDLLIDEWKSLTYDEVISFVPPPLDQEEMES

With `O=C1ON(c2ccccc2)C(c2ccncc2)N1c1ccc(C(F)(F)F)cc1` (centres unmarked) [Compound 3c, 2-Phenyl-4-(4-trifluoromethyl)-3-(pyridin-4-yl)-1,2,4-oxadiazolidin-5-one], the IC50 is 2 µM.
For `O=C1ON(c2ccccc2)C(c2ccncc2)N1c1ccc(Cl)cc1` (centres unmarked) [Compound 3d, 2-Phenyl-4-(4-chlorophenyl)-3-(pyridin-4-yl)-1,2,4-oxadiazolidin-5-one] the value was 1.5 µM; for `O=C1ON(Cc2ccccc2)C(c2ccncc2)N1c1ccc(F)cc1` (centres unmarked) [Compound 3e, 2-Benzyl-4-(4-fluorophenyl)-3-(pyridin-4-yl)-1,2,4-oxadiazolidin-5-one], 0.08 µM; for `O=C1ON(Cc2ccccc2)C(c2ccncc2)N1c1ccc([N+](=O)[O-])cc1` (centres unmarked) [Compound 3f, 2-Benzyl-4-(4-nitrophenyl)-3-(pyridin-4-yl)-1,2,4-oxadiazolidin-5-one], 0.15 µM.
Consider `O=C1ON(Cc2ccccc2)C(c2ccccc2)N1c1ccc(F)cc1` (centres unmarked) [Compound 3g, 2-Benzyl-4-(4-fluorophenyl)-3-phenyl-1,2,4-oxadiazolidin-5-one], for which the IC50 came to 15.1 µM.
For `O=C1ON(Cc2ccccc2)C(c2ccccc2)N1c1ccc([N+](=O)[O-])cc1` (centres unmarked) [Compound 3h, 2-Benzyl-4-(4-nitrophenyl)-3-phenyl-1,2,4-oxadiazolidin-5-one] the value was 60.5 µM; for `CC1N(Cc2ccccc2)OC(=O)N1c1ccc(F)cc1` (centres unmarked) [Compound 3i, 2-Benzyl-4-(4-fluorophenyl)-3-methyl-1,2,4-oxadiazolidin-5-one], 18.5 µM; for `CC1N(c2ccccc2)OC(=O)N1c1ccc(F)cc1` (centres unmarked) [Compound 3l, 2-Phenyl-4-(4-fluorophenyl)-3-methyl-1,2,4-oxadiazolidin-5-one], 22.8 µM.

One may read the IC50 as the concentration that gives 50% inhibition.
